Test results published in patent US5270047A, “Local delivery of dipyridamole for the treatment of proliferative diseases” (priority 1991, dated 1993).
“Also recorded” adds a separate entry of the source.

How the values were obtained:
vascular restenosis = conditions: systemic administration; patients; cited from earlier work
[1] = test system: Smooth muscle cells from rabbit aorta; assay: Inhibition of DNA synthesis (3H thymidine incorporation) induced by PDGF, FGF or EGF; assay type: cell-based; conditions: for inhibition at 0.08 µg/mL / inhibition at 0.15 µg/mL / inhibition at 0.32 µg/mL / inhibition at 0.64 µg/mL / inhibition at 1.2 µg/mL / inhibition at 2.5 µg/mL: Oryctolagus cuniculus, Platelet, 24 h, 1% platelet poor plasma; for inhibition at 0.08 µg/mL: dipyridamole 0.08 μg/ml; for inhibition at 0.15 µg/mL: dipyridamole 0.15 μg/ml; for inhibition at 0.32 µg/mL: dipyridamole 0.32 μg/ml; for inhibition at 0.64 µg/mL: dipyridamole 0.64 μg/ml; for inhibition at 1.2 µg/mL: dipyridamole 1.2 μg/ml; for inhibition at 2.5 µg/mL: dipyridamole 2.5 μg/ml
Procedure: Dipyridamole inhibits smooth muscle cell proliferation induced by multiple growth factors. Smooth muscle cells from rabbit aorta (derived by explant method) were seeded in 96 well tissue culture plates in DMEM containing 10% fetal bovine serum, 2 mM L-glutamine, 100 U/ml penicillin and 100 μg/ml streptomycin. Growth arrested, confluent cultures in 96 well microtiter plates were incubated in medium containing 1% platelet poor plasma, 2 mM L-glutanime, 100 U/ml penicillin, 100 μg/ml streptomycin, 20 ng/ml PDGF, 3 ng/ml EGF (Genzyme), 3 ng/ml FGF (Genzyme), 1 μci/ml ^3 H thymidine and indicated concentrations of dipyridamole. Cells were incubated at 37° C. for 24 hours under 5% CO2 /95% air. At the end of 24 hours, cells were fixed in methanol. DNA synthesis was determined by ^3 H thymidine incorporation as previously described.

[2] = test system: Smooth muscle cells from rabbit aorta; assay: Effect of serum concentration on inhibition of PDGF-induced DNA synthesis (3H thymidine incorporation) by dipyridamole; assay type: cell-based; conditions: for inhibition at 0.04 µg/mL / inhibition at 0.08 µg/mL / inhibition at 0.15 µg/mL / inhibition at 0.3 µg/mL / inhibition at 0.6 µg/mL / inhibition at 1.2 µg/mL / inhibition at 2.5 µg/mL: Oryctolagus cuniculus, 24 h, 40 ng/ml PDGF; for inhibition at 0.04 µg/mL: dipyridamole 0.04 μg/ml; for inhibition at 0.08 µg/mL: dipyridamole 0.08 μg/ml; for inhibition at 0.15 µg/mL: dipyridamole 0.15 μg/ml; for inhibition at 0.3 µg/mL: dipyridamole 0.3 μg/ml; for inhibition at 0.6 µg/mL: dipyridamole 0.6 μg/ml; for inhibition at 1.2 µg/mL: dipyridamole 1.2 μg/ml; for inhibition at 2.5 µg/mL: dipyridamole 2.5 μg/ml
Procedure: Serum reduces the effectiveness of systemically administered dipyridamole as an inhibitor of cell proliferation. […] Growth arrested, confluent cultures in 96 well microtiter plates were incubated in medium containing 1%, 5% or 20% serum (Hyclone Laboratories, Logan, Utah), 2 mM L-glutamine, 100 U/ml penicillin, 100 μg/ml streptomycin, 40 ng/ml PDGF (Genzyme, Cambridge, Mass.), 1 μci/ml ^3 H thymidine (DuPont, Boston, Mass.) and indicated concentrations of dipyridamole (Sigma Chemical, St. Louis, Mo.). Cells were incubated at 37° C. for 24 hours under 5% CO2 /95% air. At the end of 24 hours, cells were fixed in methanol and DNA synthesis was determined by ^3 H thymidine incorporation as described in Bonin et al., Exp. Cell Res. 181, 475-482 (1989).

[3] = test system: balloon-injured left common carotid arteries; assay: Effect of local adventitial dipyridamole upon intimal thickening after balloon injury of the left common carotid artery; assay type: in vivo, male Sprague-Dawley rats; conditions: 600 μg/day, fourteen days
Procedure: Balloon injury to the left common carotid arteries of male Sprague-Dawley rats (350-400 g) was accomplished by three passes of an inflated 2F Fogarty balloon catheter as described by Clowes et al., Lab Invest. 49:208-215 (1983). Animals were anesthetized with Ketamine (80 mg/kg, intramuscular) and Rompun (16 mg/kg, intramuscular). Entry of the balloon catheter to the left common carotid artery was made via a nick in the external carotid artery, which was tied off at the end of the surgical procedure. Continuous local delivery of dipyridamole was accomplished by means of a minosmotic pump implanted subcutaneously in the back of the rat. […]
Fourteen days post surgery, animals were anesthetized (vide supra) and perfused through the abdominal aorta in a retrograde manner at physiological pressure with a zinc formalin fixative (Anatech LTD., Battle Creek, Mich.). […] Three adjacent cross sections (5 μm thick) of each vessel were cut, stained with hematoxylin and eosin, and cross-sectional intimal areas quantitated with an image analyzer (Quantimet 970, Cambridge Inst., Cambridge, UK).
The difference between intimal areas of drug-treated vs. control groups were analyzed for statistical significance using Student's t-test as described in Tallarida et al., Manual of Pharmacologic Calculations with Computer Programs, Springer-Verlag, New York, 1981, p. […]

[4] = test system: balloon-injured rat carotid arteries; assay: Effect of systemic (dietary) dipyridamole upon intimal thickening after balloon injury of the left common carotid artery; assay type: in vivo, male Sprague-Dawley rats; conditions: two weeks; for Area of Intimal Thickening: control 0.120 ± 0.014
Procedure: Balloon injury to the left common carotid arteries of male Sprague-Dawley rats (350-400 g) was accomplished by three passes of an inflated 2F Fogarty balloon catheter (Baxter Healthcare, McGaw Park, Ill.) as described by Clowes et al., Lab Invest. 49:208-215 (1983). Animals were anesthetized with Ketamine (80 mg/kg, intramuscular, Aveco, Ft. Dodge, Iowa) and Rompun (16 mg/kg, intramuscular, Mobay Corp., Shawnee, Kans.). Entry of the balloon catheter to the left common carotid artery was made via a nick in the external carotid artery, which was tied off at the end of the surgical procedure. Dipyridamole was systemically administered for two weeks (0.03 and 0.10% wt/wt, as an admixture in the diet, equivalent to approximately 30 and 100 mg/kg/day, respectively).

[5] = 0.03% in diet wt/wt (approximately 30 mg/kg/day)
[6] = 0.10% in diet wt/wt (approximately 100 mg/kg/day)

In the case of OCCN(CCO)c1nc(N2CCCCC2)c2nc(N(CCO)CCO)nc(N3CCCCC3)c2n1 [Dipyridamole, 2,6-bis(diethanolamino)-4,8-dipiperidinopyrimido[5,4-d]pyrimidine], the “effect in treating or preventing vascular restenosis” value (vascular restenosis) is given as “ineffective; also recorded: ineffective in treating or preventing vascular restenosis in patients”, the inhibition at 0.08 µg/mL ([1]; EGF (3 ng/ml)) is given as 68% and the inhibition at 0.15 µg/mL ([1]; EGF (3 ng/ml)) is given as 76%. For the same compound, the inhibition at 0.32 µg/mL ([1]; EGF (3 ng/ml)) was 85%, the inhibition at 0.64 µg/mL ([1]; EGF (3 ng/ml)) was 90% and the inhibition at 1.2 µg/mL ([1]; EGF (3 ng/ml)) was 94%. The inhibition at 2.5 µg/mL ([1]; EGF (3 ng/ml)) was 96%, the inhibition at 0.08 µg/mL ([1]; FGF (3 ng/ml)) was 67% and the inhibition at 0.15 µg/mL ([1]; FGF (3 ng/ml)) was 74%. For the same compound, the inhibition at 0.32 µg/mL ([1]; FGF (3 ng/ml)) was 80%, the inhibition at 0.64 µg/mL ([1]; FGF (3 ng/ml)) was 87% and the inhibition at 1.2 µg/mL ([1]; FGF (3 ng/ml)) was 92%. It also gave an inhibition at 2.5 µg/mL ([1]; FGF (3 ng/ml)) of 93%, an inhibition at 0.08 µg/mL ([1]; PDGF (20 ng/ml)) of 64% and an inhibition at 0.15 µg/mL ([1]; PDGF (20 ng/ml)) of 71%. For the same compound, the inhibition at 0.32 µg/mL ([1]; PDGF (20 ng/ml)) was 82%, the inhibition at 0.64 µg/mL ([1]; PDGF (20 ng/ml)) was 89% and the inhibition at 1.2 µg/mL ([1]; PDGF (20 ng/ml)) was 93%. The inhibition at 2.5 µg/mL ([1]; PDGF (20 ng/ml)) was 96%, the “inhibition of smooth muscle cell proliferation induced by growth factors” value ([1]; PDGF, FGF, and EGF) was “inhibits cell proliferation induced by PDGF, FGF, and EGF” and the “effect of serum on antiproliferative activity” value ([2]; 1%, 5% or 20% serum) was “increasing concentrations of serum attenuate the growth inhibitory effects of dipyridamole”. For the same compound, the inhibition at 0.04 µg/mL ([2]; 1% serum) was 59%, the inhibition at 0.08 µg/mL ([2]; 1% serum) was 70% and the inhibition at 0.15 µg/mL ([2]; 1% serum) was 79%. The inhibition at 0.3 µg/mL ([2]; 1% serum) was 80%, the inhibition at 0.6 µg/mL ([2]; 1% serum) was 86% and the inhibition at 1.2 µg/mL ([2]; 1% serum) was 90%. It also gave an inhibition at 2.5 µg/mL ([2]; 1% serum) of 93%, an inhibition at 0.04 µg/mL ([2]; 5% serum) of 52% and an inhibition at 0.08 µg/mL ([2]; 5% serum) of 53%. The inhibition at 0.15 µg/mL ([2]; 5% serum) was 60%, the inhibition at 0.3 µg/mL ([2]; 5% serum) was 71% and the inhibition at 0.6 µg/mL ([2]; 5% serum) was 80%. It also gave an inhibition at 1.2 µg/mL ([2]; 5% serum) of 87%, an inhibition at 2.5 µg/mL ([2]; 5% serum) of 92% and an inhibition at 0.04 µg/mL ([2]; 20% serum) of 6%. For the same compound, the inhibition at 0.08 µg/mL ([2]; 20% serum) was 0%, the inhibition at 0.15 µg/mL ([2]; 20% serum) was 33% and the inhibition at 0.3 µg/mL ([2]; 20% serum) was 38%. For the same compound, the inhibition at 0.6 µg/mL ([2]; 20% serum) was 60%, the inhibition at 1.2 µg/mL ([2]; 20% serum) was 74% and the inhibition at 2.5 µg/mL ([2]; 20% serum) was 77%. For the same compound, the “Area of Intimal Thickening (% of control)” value (“Area … (% of control)” for short) ([3]; P < 0.05 vs. control) was 67.4 % of control, the “Area of Intimal Thickening” value ([3]; vehicle 0.129 ± 0.013, P < 0.05 vs. control) was 0.087 ± 0.011 mm^2 and the “Area … (% of control)” value [4, 5] was 97.6 % of control. For the same compound, the “Area of Intimal Thickening” value [4, 5] was 0.116 ± 0.017 mm^2, the “effect upon intimal thickening in the balloon-injured rat carotid arteries” value ([4]; 0.03 and 0.10% wt/wt in the diet) was “No significant effect upon intimal thickening” and the “Area … (% of control)” value [4, 6] was 90.8 % of control. The “Area of Intimal Thickening” value [4, 6] was 0.109 ± 0.014 mm^2.
